Like-named read-outs stand apart in the source and are kept apart here.
Columns and labels:
[1] = target: TRKC(NTRK3) (Homo sapiens, UniProt Q16288); test: Caliper kinase assay: TRKC (NTRK3); details: Trk C, 0.01 μM
Method: (§6) The compound was tested at concentrations of 1.0×10^−8 and 1.0×10^−9 M in the RapidKinase192™ panel in duplicate. […] The screening was performed using the Caliper EZReader2, a 4-sipper LabChip, and ProfilerPro Kinase Selectivity Assay Kits 1 and 2. The assay measures the conversion of a fluorescent peptide substrate to a phosphorylated product. Briefly, the reaction mixture was introduced through a capillary sipper onto the microfluidic chip, where the substrate and product were electrophoretically separated and detected by laser-induced fluorescence. The time-dependent fluorescence signal indicates the extent of the reaction.
(§7) The kinases tested were AurA, AurB, AurC, AXL, FAK2, IGF1R, InsR, Mer, MET, Trk B and Trk C.
(§8) The assays were conducted using the Caliper LabChip 3000 and a 12-sipper LabChip as described above.

[2] = target: T1, IGF-1R (Homo sapiens, UniProt P08069); test: In vitro IGF-1R enzymatic assay (ADP-Glo kinase assay); format: biochemical; details: activated IGF-1R, 30 nM
T1 construct: purchased Millipore 14-802
Method: (§1) IC50 values of the compounds of the invention against IGF-1R and IR were measured in vitro using an ADP-Glo kinase assay Kit (Promega). […] Kinase reactions in both assays were conducted at 30° C. for 20 min with increasing concentrations of compounds of the invention.
Additional compounds of the invention were screened against activated IGF-1R.

[3] = target: T2, IR (Homo sapiens, UniProt P06213); test: In vitro IR enzymatic assay (ADP-Glo kinase assay); format: biochemical; details: activated IR, 30 nM
T2 construct: purchased Millipore 14-803
Method: as §1
Additional compounds of the invention were screened against activated IR.

[4] = tested on: Akt phosphorylation induced by IGF-1R; test: Western blot analysis of Akt phosphorylation induced by IGF-1 in HT-29 cells; format: cell-based, Human; details: for Levels of phosphorylated AKT in treated cells (pAKT/actin): HT-29 cells, IGF-1; for p-AKT relative to levels with 0.1 nM compound: Table B2 lower part; for Normalized phosphorylated AKT (relative to actin) levels relative to 0.1 nM compound treatment: Table B2 upper part; for pAKT relative to 0.1 nM compound: derivatives of Cpd. No. 8b
Method in brief: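 Phospho-Akt assessed by western blot in serum-depleted (24 h) human colon carcinoma HT-29 cells. Compounds applied for 2 h at 0.1–100 (0.1, 1, 10, 100); vehicle DMSO and 10 ng/mL IGF-1 served as controls. Protein in cleared lysates measured by BCA assay.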

[5] = target: T3, AXL (Homo sapiens, UniProt P30530); test: Caliper kinase assay: AXL; details: 0.01 μM
T3 sequence (P30530 26-894): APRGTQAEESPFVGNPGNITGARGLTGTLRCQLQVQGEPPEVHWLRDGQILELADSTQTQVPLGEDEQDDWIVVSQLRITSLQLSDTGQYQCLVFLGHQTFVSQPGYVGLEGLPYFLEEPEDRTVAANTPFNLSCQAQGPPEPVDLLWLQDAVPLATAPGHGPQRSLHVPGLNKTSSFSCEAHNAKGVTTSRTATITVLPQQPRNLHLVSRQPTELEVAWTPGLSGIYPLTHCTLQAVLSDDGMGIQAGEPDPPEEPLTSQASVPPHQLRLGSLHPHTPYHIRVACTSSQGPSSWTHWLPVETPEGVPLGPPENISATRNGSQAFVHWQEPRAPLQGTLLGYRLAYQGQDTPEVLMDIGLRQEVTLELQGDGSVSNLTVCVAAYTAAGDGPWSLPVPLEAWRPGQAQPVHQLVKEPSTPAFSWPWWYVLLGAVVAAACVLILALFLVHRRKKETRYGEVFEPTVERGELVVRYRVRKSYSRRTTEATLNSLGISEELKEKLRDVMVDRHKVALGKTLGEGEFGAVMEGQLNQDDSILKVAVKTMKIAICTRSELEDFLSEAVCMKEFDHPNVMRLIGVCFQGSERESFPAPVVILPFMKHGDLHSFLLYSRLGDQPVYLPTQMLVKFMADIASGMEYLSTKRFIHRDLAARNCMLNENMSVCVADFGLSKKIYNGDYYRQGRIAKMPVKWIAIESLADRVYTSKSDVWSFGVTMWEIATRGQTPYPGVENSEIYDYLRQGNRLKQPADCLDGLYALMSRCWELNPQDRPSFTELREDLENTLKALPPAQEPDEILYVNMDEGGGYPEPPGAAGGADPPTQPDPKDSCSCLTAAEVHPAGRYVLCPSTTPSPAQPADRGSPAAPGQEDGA
Method: as §6, §7, §8

[6] = target: NTRK2(TRKB) (Homo sapiens, UniProt Q16620); test: Caliper kinase assay: NTRK2 (TRKB); details: Trk B, 0.01 μM
Method: as §6, §7, §8

[7] = target: PYK2 (Homo sapiens, UniProt Q14289); test: Caliper kinase assay: PYK2 (called FAK2); details: FAK2, 0.01 μM
Method: as §6, §7, §8

[8] = tested on: MDA MB175; test: Cell Titer-Glo cell viability: MDA MB175; format: cell-based; details: MDA-MB-175, any concentration tested, 3 μM maximum
Method: (§2) Compound nos. […] This panel of cell lines includes an ER− breast carcinoma, primary breast ductal carcinoma, prostate adenocarcinoma, mammary adenocarcinoma, mammary ductal carcinoma, mammary ductal carcinoma, ovary adenocarcinoma, ER+ breast carcinoma, ER− HER2+ mammary ductal carcinoma and an ER+ mammary ductal carcinoma, respectively.
(§3) This assay quantitates the ATP present in order to determine the number of viable cells in culture. Briefly, the compounds were incubated with the cells for 72 h, followed by cell lysis. The resulting luminescent signal is proportional to the amount of ATP present and, therefore, directly proportional to the number of cells present in culture.
(§4) Compounds 2b, 5, 6b and 10a were tested along with derivatives in viability assays as described above by Caliper LifeSciences Systems (Hanover, Md.), in A549, HCT-15, HCT-116, MCF-7, MDA-MB-231, OVCAR3, T47D, COLO205, HT-29, BT-20, HCC1187, HL-60, MDA-MB-175, SW-620, and UACC812 cells.
(§5) The inhibitory effects of Compound 8a were tested in two cell lines.

[9] = tested on: UACC 812; test: Cell Titer-Glo cell viability: UACC 812; format: cell-based; details: UACC812, any concentration tested, 3 μM maximum
Method: as §2, §3, §4, §5

[10] = N1, read-out: % Inh @ 30 nM (N1)
[11] = N2, read-out: % Inh @ 30 nM (N2)
[12] = average, read-out: % Inh @ 30 nM Avg

T1 sequence (P08069 31-1367): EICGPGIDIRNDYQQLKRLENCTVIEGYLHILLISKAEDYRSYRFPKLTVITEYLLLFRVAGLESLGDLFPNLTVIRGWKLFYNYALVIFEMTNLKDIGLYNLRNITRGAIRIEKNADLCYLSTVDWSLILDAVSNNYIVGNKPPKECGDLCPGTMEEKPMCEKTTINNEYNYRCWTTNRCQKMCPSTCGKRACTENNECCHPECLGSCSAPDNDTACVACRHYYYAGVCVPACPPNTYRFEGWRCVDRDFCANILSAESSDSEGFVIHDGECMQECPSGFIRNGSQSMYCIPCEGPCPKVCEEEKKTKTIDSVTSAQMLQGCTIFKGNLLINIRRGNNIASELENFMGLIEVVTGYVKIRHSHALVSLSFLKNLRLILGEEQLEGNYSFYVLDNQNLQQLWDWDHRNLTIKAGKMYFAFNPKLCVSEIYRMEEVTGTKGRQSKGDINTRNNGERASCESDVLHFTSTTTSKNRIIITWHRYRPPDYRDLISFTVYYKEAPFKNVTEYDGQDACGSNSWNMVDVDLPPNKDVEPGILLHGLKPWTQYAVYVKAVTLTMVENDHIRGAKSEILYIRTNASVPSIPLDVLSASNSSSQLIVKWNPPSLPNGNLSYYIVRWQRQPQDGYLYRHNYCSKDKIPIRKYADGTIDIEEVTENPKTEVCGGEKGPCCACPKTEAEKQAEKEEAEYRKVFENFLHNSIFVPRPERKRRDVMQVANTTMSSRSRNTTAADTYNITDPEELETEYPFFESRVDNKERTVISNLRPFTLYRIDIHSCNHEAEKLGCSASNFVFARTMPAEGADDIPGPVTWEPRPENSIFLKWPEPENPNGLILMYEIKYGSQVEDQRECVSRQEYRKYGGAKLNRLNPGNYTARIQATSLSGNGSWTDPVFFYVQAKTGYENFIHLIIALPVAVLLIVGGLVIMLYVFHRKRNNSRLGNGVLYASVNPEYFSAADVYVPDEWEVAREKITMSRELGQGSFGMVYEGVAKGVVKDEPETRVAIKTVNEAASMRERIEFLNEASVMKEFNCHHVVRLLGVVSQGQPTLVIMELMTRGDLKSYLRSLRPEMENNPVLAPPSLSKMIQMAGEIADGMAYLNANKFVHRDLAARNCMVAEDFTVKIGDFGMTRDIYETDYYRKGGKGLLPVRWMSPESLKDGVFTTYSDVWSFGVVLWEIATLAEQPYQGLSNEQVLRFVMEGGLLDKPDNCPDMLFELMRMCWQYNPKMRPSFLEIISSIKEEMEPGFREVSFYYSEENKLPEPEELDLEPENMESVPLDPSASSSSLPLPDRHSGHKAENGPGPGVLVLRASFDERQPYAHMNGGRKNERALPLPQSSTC
T2 sequence (P06213 28-1382): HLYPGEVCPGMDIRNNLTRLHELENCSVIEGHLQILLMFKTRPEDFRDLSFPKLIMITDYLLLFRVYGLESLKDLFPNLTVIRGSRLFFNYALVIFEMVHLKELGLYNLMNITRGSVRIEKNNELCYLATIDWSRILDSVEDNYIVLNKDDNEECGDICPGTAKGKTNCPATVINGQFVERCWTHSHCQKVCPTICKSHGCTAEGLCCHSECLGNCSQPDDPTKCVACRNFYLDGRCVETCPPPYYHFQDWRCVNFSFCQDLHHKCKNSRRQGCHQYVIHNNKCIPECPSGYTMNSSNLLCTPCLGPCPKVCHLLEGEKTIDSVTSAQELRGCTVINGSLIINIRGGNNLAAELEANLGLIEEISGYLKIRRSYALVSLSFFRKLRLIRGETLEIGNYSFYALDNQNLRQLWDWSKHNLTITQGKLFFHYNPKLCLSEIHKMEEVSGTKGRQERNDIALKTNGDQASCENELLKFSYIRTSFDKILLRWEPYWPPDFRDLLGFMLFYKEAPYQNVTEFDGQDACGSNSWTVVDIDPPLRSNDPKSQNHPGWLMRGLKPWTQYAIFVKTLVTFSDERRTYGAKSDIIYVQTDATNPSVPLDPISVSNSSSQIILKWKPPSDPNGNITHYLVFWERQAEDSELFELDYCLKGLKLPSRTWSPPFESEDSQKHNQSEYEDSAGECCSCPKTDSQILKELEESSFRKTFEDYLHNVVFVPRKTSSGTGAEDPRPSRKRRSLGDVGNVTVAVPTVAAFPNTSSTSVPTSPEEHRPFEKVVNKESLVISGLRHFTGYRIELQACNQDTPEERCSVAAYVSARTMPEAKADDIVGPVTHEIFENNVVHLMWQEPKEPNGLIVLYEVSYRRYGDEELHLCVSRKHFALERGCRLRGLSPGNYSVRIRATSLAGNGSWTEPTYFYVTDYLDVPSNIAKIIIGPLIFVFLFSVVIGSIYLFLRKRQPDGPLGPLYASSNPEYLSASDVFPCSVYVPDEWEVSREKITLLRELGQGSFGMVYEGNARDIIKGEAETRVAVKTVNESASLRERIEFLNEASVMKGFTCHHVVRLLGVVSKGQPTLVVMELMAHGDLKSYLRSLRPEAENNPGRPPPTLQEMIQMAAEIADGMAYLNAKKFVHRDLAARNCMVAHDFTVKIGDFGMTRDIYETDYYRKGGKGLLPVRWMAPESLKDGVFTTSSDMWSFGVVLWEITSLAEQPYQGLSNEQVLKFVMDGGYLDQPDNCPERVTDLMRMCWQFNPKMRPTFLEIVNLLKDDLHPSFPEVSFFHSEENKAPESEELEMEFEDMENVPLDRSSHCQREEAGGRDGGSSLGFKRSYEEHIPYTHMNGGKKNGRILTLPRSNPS
NTRK2(TRKB), sequence (Q16620 32-822): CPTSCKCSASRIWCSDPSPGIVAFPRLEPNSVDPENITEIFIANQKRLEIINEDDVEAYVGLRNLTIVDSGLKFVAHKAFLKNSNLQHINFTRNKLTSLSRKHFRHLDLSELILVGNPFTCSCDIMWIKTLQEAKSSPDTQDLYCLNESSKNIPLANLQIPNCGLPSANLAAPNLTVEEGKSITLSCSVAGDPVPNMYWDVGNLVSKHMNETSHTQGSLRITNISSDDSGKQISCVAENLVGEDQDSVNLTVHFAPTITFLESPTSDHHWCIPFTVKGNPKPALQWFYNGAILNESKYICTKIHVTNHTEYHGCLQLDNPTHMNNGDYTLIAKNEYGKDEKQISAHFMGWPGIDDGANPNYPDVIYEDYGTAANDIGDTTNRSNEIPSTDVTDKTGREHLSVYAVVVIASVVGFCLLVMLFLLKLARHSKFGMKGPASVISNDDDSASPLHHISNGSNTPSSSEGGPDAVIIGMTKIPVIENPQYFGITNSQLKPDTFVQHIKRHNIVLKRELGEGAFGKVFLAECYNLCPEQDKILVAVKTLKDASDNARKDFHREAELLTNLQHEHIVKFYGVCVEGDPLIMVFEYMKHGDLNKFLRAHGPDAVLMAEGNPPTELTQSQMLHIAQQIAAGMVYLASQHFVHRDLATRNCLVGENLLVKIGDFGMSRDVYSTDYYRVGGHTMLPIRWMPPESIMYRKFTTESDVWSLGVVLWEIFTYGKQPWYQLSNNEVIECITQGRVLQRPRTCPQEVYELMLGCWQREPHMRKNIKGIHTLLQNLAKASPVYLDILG
PYK2, sequence (Q14289 whole entry): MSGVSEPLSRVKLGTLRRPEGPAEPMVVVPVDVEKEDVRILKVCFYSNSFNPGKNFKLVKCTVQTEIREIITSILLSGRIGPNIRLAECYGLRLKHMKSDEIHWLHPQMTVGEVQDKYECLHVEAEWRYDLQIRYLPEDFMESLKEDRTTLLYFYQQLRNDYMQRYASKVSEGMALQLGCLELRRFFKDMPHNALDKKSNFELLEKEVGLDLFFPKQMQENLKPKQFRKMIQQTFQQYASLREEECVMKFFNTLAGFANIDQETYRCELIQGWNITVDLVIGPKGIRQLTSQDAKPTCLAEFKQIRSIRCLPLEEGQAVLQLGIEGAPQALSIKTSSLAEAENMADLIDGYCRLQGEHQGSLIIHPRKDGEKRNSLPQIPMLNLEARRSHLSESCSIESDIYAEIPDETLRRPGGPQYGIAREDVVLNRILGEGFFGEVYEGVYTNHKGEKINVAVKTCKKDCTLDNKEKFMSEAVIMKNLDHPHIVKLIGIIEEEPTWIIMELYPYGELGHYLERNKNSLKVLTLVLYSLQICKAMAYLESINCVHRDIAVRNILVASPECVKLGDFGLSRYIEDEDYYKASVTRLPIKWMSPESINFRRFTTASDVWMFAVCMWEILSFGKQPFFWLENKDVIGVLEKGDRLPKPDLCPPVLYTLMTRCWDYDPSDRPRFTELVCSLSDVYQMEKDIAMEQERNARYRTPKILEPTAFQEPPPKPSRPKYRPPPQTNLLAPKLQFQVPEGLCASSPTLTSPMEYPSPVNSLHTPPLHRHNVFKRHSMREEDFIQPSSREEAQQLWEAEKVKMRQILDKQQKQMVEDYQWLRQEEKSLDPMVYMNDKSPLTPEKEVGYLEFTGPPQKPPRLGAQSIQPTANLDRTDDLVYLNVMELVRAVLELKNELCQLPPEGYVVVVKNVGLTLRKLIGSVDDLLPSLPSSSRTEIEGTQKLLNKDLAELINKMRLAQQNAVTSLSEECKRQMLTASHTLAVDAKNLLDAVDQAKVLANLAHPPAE

SMILES	inhibition at 0.03 µM [2, 12] [%]	Levels of phosphorylated AKT in treated cells (pAKT/actin) ([4]; 0.1 nM compound)	p-AKT relative to levels with 0.1 nM compound ([4]; 0.1 nM)	Normalized phosphorylated AKT (relative to actin) levels relative to 0.1 nM compound treatment ([4]; 0.1 nM)	Levels of phosphorylated AKT in treated cells (pAKT/actin) ([4]; 1 nM compound)	p-AKT relative to levels with 0.1 nM compound ([4]; 1 nM)	Normalized phosphorylated AKT (relative to actin) levels relative to 0.1 nM compound treatment ([4]; 1 nM)	Levels of phosphorylated AKT in treated cells (pAKT/actin) ([4]; 10 nM compound)	p-AKT relative to levels with 0.1 nM compound ([4]; 10 nM)	Levels of phosphorylated AKT in treated cells (pAKT/actin) ([4]; 100 nM compound)	p-AKT relative to levels with 0.1 nM compound ([4]; 100 nM)	Normalized phosphorylated AKT (relative to actin) levels relative to 0.1 nM compound treatment ([4]; 100 nM)	other results
O=C(Nc1cnccn1)C1CCCN1c1nc2c(c(Nc3cc(C4CC4)[nH]n3)n1)CCC2 (single isomer, unassigned) [Compound 6b, 1-(4-(3-cyclopropyl-1H-pyrazol-5-ylamino)-6,7-dihydro-5H-cyclopenta[d]pyrimidin-2-yl)-N-(pyrazin-2-yl)pyrrolidine-2-carboxamide]	94	0.87	1.0	1.0	0.18	0.2	0.2	0.00	0.0	0.00	0.0	0.0	inhibition of kinase [1]: strongly inhibited; inhibition at 0.03 µM [2, 10]: 93%; inhibition at 0.03 µM [2, 11]: 95%; inhibition at 0.03 µM [3, 10]: 92%; inhibition at 0.03 µM [3, 11]: 91%; inhibition at 0.03 µM [3, 12]: 92%; pAKT relative to 0.1 nM compound ([4]; 0.1 nM): 1.00; pAKT relative to 0.1 nM compound ([4]; 1 nM): 0.39; pAKT relative to 0.1 nM compound ([4]; 10 nM): 0.02; pAKT relative to 0.1 nM compound ([4]; 100 nM): 0.01; inhibition of kinase [5]: strongly inhibited; inhibition of kinase [6]: strongly inhibited; inhibition of kinase [7]: strongly inhibited
CC(C)c1cc(Nc2nc(N3CCC[C@H]3C(=O)Nc3ccc(F)nc3)nc3c2CCC3)n[nH]1 (single isomer, unassigned) [Compound 8a]	0	1.93	1.0	1.0	2.27	1.2	1.2	1.17	0.6	1.78	0.9	0.9	Normalized phosphorylated AKT (relative to actin) levels relative to 0.1 nM compound treatment ([4]; 10 nM): 0.6; proliferation as compared to the untreated control [8]: ≥ 68%; proliferation as compared to the untreated control [9]: ≥ 68%

— patent US9499519B2, “Fused pyrimidine compounds and use thereof” (Medivation Technologies, Inc., priority 2012, dated 2016)
